Patent US20240124460A1, “METHODS AND COMPOSITIONS FOR TARGETED PROTEIN DEGRADATION” (Ranok Therapeutics (Hangzhou) Co. Ltd., priority 2020, published 2024)
Read-outs that look alike come from different tables or passages of the source.

How the values were obtained:
HSP90α protein = target: T1, HSP90α protein (Homo sapiens, UniProt P07900); test: HSP90α-binding FP (BODIPY) assay; conditions: FP competition with BODIPY-labeled RNK04010
T1 construct: purchased BPS Bioscience #50298
Description: Binding of test compounds to HSP90α protein was measured by fluorescent polarization (FP) using the HSP90α (N-terminal) Assay Kit (BPS Bioscience, #50298), following the manufacturer's instructions, except as noted. Fluorescently labeled HSP90-binding compounds, either the provided FITC-geldanamycin (5 nM final concentration) or RNK04010, a triazolone-based HSP90 binding small molecule labeled with BODIPY through a piperazine-phenyl linker (5 nM final concentration) were employed. A 2.5-fold serial dilution of each test compound ranging from 20 μM to 5.2 nM was assayed for binding to HSP90α. After the final step of adding HSP90α protein to each assay well, plates were mixed by brief shaking, incubated at 25° C. for 120 min for FITC-geldanamycin or 300 min for RNK04010, and fluorescence was measured using a PerkinElmer EnVision Plate Reader.

[1] = tested on: MV-4-11 human acute myeloid leukemia; test: MV-4-11 CCK-8 proliferation assay; type: cell-based; conditions: MV-4-11 cells, 72 hr
Method in brief: (§1)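 3-fold dilution series, 20 μM–1.02 nM; ATCC culture conditions; CCK-8 absorbance read-out; % inhibition = 100 − (D−B)/(S−B)×100, S = DMSO cells, B = medium + DMSO, no cells.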

[2] = tested on: U-87 MG human glioblastoma; test: U87 MG CCK-8 proliferation assay; type: cell-based; conditions: U-87 MG cells, read-out: U87MG CCK-8
Method in brief: as §1

Compound	IC50 (HSP90α protein) [nM]	EC50 ([1]; Homo sapiens, MV4-11) [nM]	EC50 ([2]; Homo sapiens, U-87 MG, 72 h) [nM]	EC50 [1] [nM]	EC50 ([2]; 72 hr) [nM]
CCOc1cc(N2CCC(C(=O)N3CCC(CN4CCN(C(=O)CNC(=O)O[C@H]5CC[C@H](Nc6cc(-n7nc(C(F)(F)F)c8c7CC(C)(C)CC8=O)ccc6C(N)=O)CC5)CC4)CC3)CC2)ccc1Nc1ncc2c(n1)N(S(C)(=O)=O)c1ccccc1C(=O)N2C [Compound 119, (1R,4R)-4-((2-carbamoyl-5-(6,6-dimethyl-4-oxo-3-(trifluoromethyl)-4,5,6,7-tetrahydro-1H-indazol-1-yl)phenyl)amino)cyclohexyl (2-(4-((1-(1-(3-ethoxy-4-((5-methyl-11-(methylsulfonyl)-6-oxo-6,11-dihydro-5H-benzo[e]pyrimido[5,4-b][1,4]diazepin-2-yl)amino)phenyl)piperidine-4-carbonyl)piperidin-4-yl)methyl)piperazin-1-yl)-2-oxoethyl)carbamate]	> 1000	< 100	> 1000		
CCOc1cc(N2CCC(C(=O)N3CCC(CN4CCC(Cc5ccc(-n6c(O)nnc6-c6cc(C(C)C)c(O)cc6O)cc5)CC4)CC3)CC2)ccc1Nc1ncc2c(n1)N(C)c1ccccc1C(=O)N2C [Compound 044, 2-((4-(4-(4-((4-(4-(3-(2,4-dihydroxy-5-isopropylphenyl)-5-hydroxy-4H-1,2,4-triazol-4-yl)benzyl)piperidin-1-yl)methyl)piperidine-1-carbonyl)piperidin-1-yl)-2-ethoxyphenyl)amino)-5,11-dimethyl-5,11-dihydro-6H-benzo[e]pyrimido[5,4-b][1,4]diazepin-6-one]	< 100	< 100	< 100		
(1R,4R)-4-((2-carbamoyl-5-(6,6-dimethyl-4-oxo-3-(trifluoromethyl)-4,5,6,7-tetrahydro-1H-indazol-1-yl)phenyl)amino)cyclohexyl (3-(1-(4-((5,11-dimethyl-6-oxo-6,11-dihydro-5H-benzo[e]pyrimido[5,4-b][1,4]diazepin-2-yl)amino)-3-ethoxyphenyl)piperidine-4-carboxamido)propyl)carbamate [Compound 102]	> 1000			100 to 1000	> 1000
CCOc1cc(N2CCC(C(=O)N3CCC(CN4CCN(Cc5ccc(-n6c(C(N)=O)nnc6-c6cc(CC)c(O)cc6O)cc5)CC4)CC3)CC2)ccc1Nc1ncc2c(n1)N(C)c1ccccc1C(=O)N2C [Compound 034, 4-(4-((4-((1-(1-(4-((5,11-dimethyl-6-oxo-6,11-dihydro-5H-benzo[e]pyrimido[5,4-b][1,4]diazepin-2-yl)amino)-3-ethoxyphenyl)piperidine-4-carbonyl)piperidin-4-yl)methyl)piperazin-1-yl)methyl)phenyl)-5-(5-ethyl-2,4-dihydroxyphenyl)-4H-1,2,4-triazole-3-carboxamide]	100 to 1000	< 100	100 to 1000		
CCOc1cc(N2CCC(C(=O)N3CCC(CN4CCN(C(=O)O[C@H]5CC[C@H](Nc6cc(-n7nc(C(F)(F)F)c8c7CC(C)(C)CC8=O)ccc6C(N)=O)CC5)CC4)CC3)CC2)ccc1Nc1ncc2c(n1)N(S(C)(=O)=O)c1ccccc1C(=O)N2C [Compound 117, (1R,4R)-4-((2-carbamoyl-5-(6,6-dimethyl-4-oxo-3-(trifluoromethyl)-4,5,6,7-tetrahydro-1H-indazol-1-yl)phenyl)amino)cyclohexyl 4-((1-(1-(3-ethoxy-4-((5-methyl-11-(methylsulfonyl)-6-oxo-6,11-dihydro-5H-benzo[e]pyrimido[5,4-b][1,4]diazepin-2-yl)amino)phenyl)piperidine-4-carbonyl)piperidin-4-yl)methyl)piperazine-1-carboxylate]	> 1000	100 to 1000	> 1000		
CCOc1cc(N2CCC(C(=O)N3CCC(CN4CCN(Cc5ccc(-n6c(C(N)=O)nnc6-c6cc(CC)c(O)cc6O)cc5)CC4)CC3)CC2)ccc1Nc1ncc2c(n1)N(S(C)(=O)=O)c1ccccc1C(=O)N2C [Compound 063, 4-(4-((4-((1-(1-(3-ethoxy-4-((5-methyl-11-(methylsulfonyl)-6-oxo-6,11-dihydro-5H-benzo[e]pyrimido[5,4-b][1,4]diazepin-2-yl)amino)phenyl)piperidine-4-carbonyl)piperidin-4-yl)methyl)piperazin-1-yl)methyl)phenyl)-5-(5-ethyl-2,4-dihydroxyphenyl)-4H-1,2,4-triazole-3-carboxamide]	< 100	< 100	< 100		
CCOc1cc(N2CCC(C(=O)N3CCC(Cc4ccc(CN(C)Cc5ccc(-n6c(C(=O)NCC(F)(F)F)nnc6-c6cc(C)c(O)cc6O)cc5)cc4)CC3)CC2)ccc1Nc1ncc2c(n1)N(S(C)(=O)=O)c1ccccc1C(=O)N2C [Compound 100, 5-(2,4-dihydroxy-5-methylphenyl)-4-(4-(((4-((1-(1-(3-ethoxy-4-((5-methyl-11-(methylsulfonyl)-6-oxo-6,11-dihydro-5H-benzo[e]pyrimido[5,4-b][1,4]diazepin-2-yl)amino)phenyl)piperidine-4-carbonyl)piperidin-4-yl)methyl)benzyl)(methyl)amino)methyl)phenyl)-N-(2,2,2-trifluoroethyl)-4H-1,2,4-triazole-3-carboxamide]	> 1000	100 to 1000	> 1000		
CCOc1cc(N2CCC(C(=O)N3CCN(CCOc4ccc(Nc5cc(-n6nc(C(F)(F)F)c7c6CC(C)(C)CC7=O)ccc5C(N)=O)cc4)CC3)CC2)ccc1Nc1ncc2c(n1)N(S(C)(=O)=O)c1ccccc1C(=O)N2C [Compound 094, 4-(6,6-dimethyl-4-oxo-3-(trifluoromethyl)-4,5,6,7-tetrahydro-1H-indazol-1-yl)-2-((4-(2-(4-(1-(3-ethoxy-4-((5-methyl-11-(methylsulfonyl)-6-oxo-6,11-dihydro-5H-benzo[e]pyrimido[5,4-b][1,4]diazepin-2-yl)amino)phenyl)piperidine-4-carbonyl)piperazin-1-yl)ethoxy)phenyl)amino)benzamide]	100 to 1000	100 to 1000	> 1000		
CCOc1cc(N2CCC(C(=O)N3CCC(N4CCN(Cc5ccc(-n6c(O)nnc6-c6cc(C(C)C)c(O)cc6O)cc5C(F)(F)F)CC4)CC3)CC2)ccc1Nc1ncc2c(n1)N(S(C)(=O)=O)c1ccccc1C(=O)N2C [Compound 069, 2-((4-(4-(4-(4-(4-(3-(2,4-dihydroxy-5-isopropylphenyl)-5-hydroxy-4H-1,2,4-triazol-4-yl)-2-(trifluoromethyl)benzyl)piperazin-1-yl)piperidine-1-carbonyl)piperidin-1-yl)-2-ethoxyphenyl)amino)-5-methyl-11-(methylsulfonyl)-5,11-dihydro-6H-benzo[e]pyrimido[5,4-b][1,4]diazepin-6-one]	100 to 1000	< 100	100 to 1000		
CCOc1cc(N2CCC(C(=O)N3CCN(C(=O)O[C@H]4CC[C@H](Nc5cc(-n6nc(C(F)(F)F)c7c6CC(C)(C)CC7=O)ccc5C(N)=O)CC4)CC3)CC2)ccc1Nc1ncc2c(n1)N(S(C)(=O)=O)c1ccccc1C(=O)N2C [Compound 106, (1R,4R)-4-((2-carbamoyl-5-(6,6-dimethyl-4-oxo-3-(trifluoromethyl)-4,5,6,7-tetrahydro-1H-indazol-1-yl)phenyl)amino)cyclohexyl 4-(1-(3-ethoxy-4-((5-methyl-11-(methylsulfonyl)-6-oxo-6,11-dihydro-5H-benzo[e]pyrimido[5,4-b][1,4]diazepin-2-yl)amino)phenyl)piperidine-4-carbonyl)piperazine-1-carboxylate]	> 1000	100 to 1000	> 1000		
